Experimental data reported in ChEMBL document CHEMBL1201862, “PubChem BioAssay data set” (2004).
The source made the active and inactive calls.

Legend:
[1] = target: Delta-type opioid receptor (Homo sapiens, UniProt P41143); test: Counterscreen for agonists of heterodimerization of the mu 1 (OPRM1) and delta 1 (OPRD1) opioid receptors: Luminescence-based cell-based high throughput dose response assay to identify agonists of OPRD1 homodimerization. [Related pubchem assays (depositor defined):AID504326, AID504355, AID504692, AID504904, AID504905]; format: functional
[2] = NIH3T3 cell viability loss – ATP luminescence, mouse fibroblasts, counter-screen, dose response (AID 2010); format: functional, cell-based;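 note: cells exposed to compound for about 90 hours before reading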
[3] = target: 5-hydroxytryptamine receptor 5A (Homo sapiens, UniProt P47898); test: Counterscreen for agonists of OPRM1-OPRD1 heterodimerization: luminescence-based cell-based high throughput dose response assay to identify agonists of 5-hydroxytryptamine (serotonin) 5A receptor (HTR5A). [Related pubchem assays (depositor defined):AID504326, AID504355, AID504692, AID504904, AID504905]; format: functional
Mu-type opioid receptor = Mu-type opioid receptor (Homo sapiens, UniProt P35372); test: Counterscreen for agonists of heterodimerization of the mu 1 (OPRM1) and delta 1 (OPRD1) opioid receptors: Luminescence-based cell-based high throughput dose response assay to identify agonists of OPRM1 homodimerization.; format: functional;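 note: U2OS cells expressing OPRM1 and beta-arrestin as split beta-galactosidase partners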
[4] = Trypanosoma cruzi growth suppression in host cells – NIH3T3 host cells, beta-gal luminescence, confirmation (AID 2044); format: functional, cell-based;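 note: intracellular parasites grown in NIH/3T3 mouse fibroblasts as host cells; luminescent beta-galactosidase reporter signal from transgenic T. cruzi replicating inside host cells; inhibitors lower the luminescence signal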
[5] = target: T1, Short transient receptor potential channel 4 (Mus musculus, UniProt Q9QUQ5); test: calcium entry via TRPC4 opening agents – cell-based, HEK293 TRPC4/mu-opioid, Fluo-4 calcium, dose response (AID 434937); format: functional
T1 sequence (Q9QUQ5 whole entry): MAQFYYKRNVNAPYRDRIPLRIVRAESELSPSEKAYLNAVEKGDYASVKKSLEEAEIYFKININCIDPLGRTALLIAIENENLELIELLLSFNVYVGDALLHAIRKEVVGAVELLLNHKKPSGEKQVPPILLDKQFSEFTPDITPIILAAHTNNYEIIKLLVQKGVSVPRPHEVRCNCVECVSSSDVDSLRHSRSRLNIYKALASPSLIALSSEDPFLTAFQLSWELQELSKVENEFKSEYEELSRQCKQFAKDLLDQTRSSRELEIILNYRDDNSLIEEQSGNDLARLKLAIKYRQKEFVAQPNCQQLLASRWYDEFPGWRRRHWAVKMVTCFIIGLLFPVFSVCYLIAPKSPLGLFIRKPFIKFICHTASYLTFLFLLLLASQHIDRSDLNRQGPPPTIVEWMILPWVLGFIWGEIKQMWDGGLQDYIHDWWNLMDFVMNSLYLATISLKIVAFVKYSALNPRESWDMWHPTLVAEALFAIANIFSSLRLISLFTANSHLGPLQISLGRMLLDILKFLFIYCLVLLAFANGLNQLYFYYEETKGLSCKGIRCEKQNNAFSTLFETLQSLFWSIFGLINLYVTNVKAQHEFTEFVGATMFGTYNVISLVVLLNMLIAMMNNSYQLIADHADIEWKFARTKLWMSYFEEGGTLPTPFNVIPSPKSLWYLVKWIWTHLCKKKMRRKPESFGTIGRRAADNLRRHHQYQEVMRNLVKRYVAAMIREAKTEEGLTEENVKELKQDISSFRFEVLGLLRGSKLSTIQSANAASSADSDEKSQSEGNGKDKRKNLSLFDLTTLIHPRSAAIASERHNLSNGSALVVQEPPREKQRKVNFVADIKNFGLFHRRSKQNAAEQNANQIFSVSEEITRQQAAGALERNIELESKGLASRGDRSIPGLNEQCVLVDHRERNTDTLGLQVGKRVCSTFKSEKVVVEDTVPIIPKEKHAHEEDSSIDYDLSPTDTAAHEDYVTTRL

Nonstructural protein 1 = Nonstructural protein 1 (Influenza A virus, UniProt Q194T2); format: functional, Influenza A virus (A/California/07/2009(H1N1))
Escherichia coli [6] = test: microbe, parasite or virus in culture
Escherichia coli [7] = test: microbe, parasite or virus in culture; remark: listed apart in the source
A-375 [8] = test: proliferation inhibition in MITF-low A375 cells – cell-based, cherry-pick samples, set 2, counter-screen for MITF modulator project, dose response (AID 540335); format: functional; settings: Homo sapiens
A-375 [9] = test: MITF: Counter assay: A375 proliferation Measured in Cell-Based System Using Plate Reader - 2084-03_Inhibitor_Dose_DryPowder_Activity. [Related pubchem assays (depositor defined):AID488944]; format: functional; settings: Homo sapiens
Trypsin = Trypsin (Sus scrofa, UniProt P00761); test: trypsin protease activity blockade – biochemical, quenched peptide fluorescence, cherry-pick, selectivity assay for Rce1 protease inhibitor project, dose response (AID 488789)
CAAX prenyl protease 2 = CAAX prenyl protease 2 (Homo sapiens, UniProt Q9Y256); test: inhibition of Ras-converting CAAX protease Rce1 – biochemical, yeast membranes, quenched-peptide fluorescence, cherry-pick, dose response (AID 588849)
[10] = target: Dual specificity protein kinase CLK1 (Homo sapiens, UniProt P49759); test: inhibition of human CLK1 activity – biochemical, cherry-picked samples, selectivity assay for Dyrk1A inhibitor project, dose response (AID 588811)
[11] = target: T2, Sentrin-specific protease 7 (Homo sapiens, UniProt Q9BQF6); test: inhibition of human SENP7 cleavage activity – biochemical, luminescence, set 2, SAR follow-up (AID 588600); format: functional
T2 sequence (Q9BQF6 whole entry): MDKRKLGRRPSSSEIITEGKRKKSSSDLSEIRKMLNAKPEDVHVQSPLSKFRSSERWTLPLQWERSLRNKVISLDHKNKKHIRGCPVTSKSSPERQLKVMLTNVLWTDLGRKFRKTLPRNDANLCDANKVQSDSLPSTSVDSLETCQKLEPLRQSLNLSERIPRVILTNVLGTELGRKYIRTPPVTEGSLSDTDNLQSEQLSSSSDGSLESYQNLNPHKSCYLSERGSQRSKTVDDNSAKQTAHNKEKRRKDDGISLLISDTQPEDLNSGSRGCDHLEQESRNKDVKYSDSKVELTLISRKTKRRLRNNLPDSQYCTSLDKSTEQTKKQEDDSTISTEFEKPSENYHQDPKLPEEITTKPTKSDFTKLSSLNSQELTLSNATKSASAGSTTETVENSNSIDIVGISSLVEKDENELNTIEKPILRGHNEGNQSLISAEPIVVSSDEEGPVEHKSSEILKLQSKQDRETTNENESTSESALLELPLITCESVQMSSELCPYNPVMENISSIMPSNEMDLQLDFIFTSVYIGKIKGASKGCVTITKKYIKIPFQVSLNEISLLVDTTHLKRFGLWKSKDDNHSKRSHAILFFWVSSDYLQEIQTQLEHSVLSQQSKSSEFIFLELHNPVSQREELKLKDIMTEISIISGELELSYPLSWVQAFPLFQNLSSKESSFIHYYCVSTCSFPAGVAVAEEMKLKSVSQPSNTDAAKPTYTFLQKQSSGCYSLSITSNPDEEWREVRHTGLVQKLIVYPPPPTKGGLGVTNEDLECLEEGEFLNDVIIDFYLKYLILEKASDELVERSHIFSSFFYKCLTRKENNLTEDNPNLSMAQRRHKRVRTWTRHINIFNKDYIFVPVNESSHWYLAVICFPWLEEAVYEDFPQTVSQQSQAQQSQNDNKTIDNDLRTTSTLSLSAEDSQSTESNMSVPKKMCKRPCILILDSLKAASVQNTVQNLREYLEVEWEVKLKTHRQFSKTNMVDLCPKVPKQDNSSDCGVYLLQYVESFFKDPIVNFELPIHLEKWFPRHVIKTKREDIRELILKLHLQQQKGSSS

[12] = target: T3, Sentrin-specific protease 8 (Homo sapiens, UniProt Q96LD8); test: inhibition of sentrin protease 8 – biochemical, luminescence, set 2, SAR follow-up (AID 588601); format: functional
T3 sequence (Q96LD8 whole entry): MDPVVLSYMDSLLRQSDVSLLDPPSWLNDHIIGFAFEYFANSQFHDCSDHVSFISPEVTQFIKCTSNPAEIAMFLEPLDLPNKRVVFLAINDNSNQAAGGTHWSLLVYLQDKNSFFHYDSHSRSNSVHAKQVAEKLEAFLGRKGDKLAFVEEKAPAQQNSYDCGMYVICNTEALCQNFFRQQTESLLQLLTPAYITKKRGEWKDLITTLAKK

Caspase-3 = target: T4, Caspase-3 (Homo sapiens, UniProt P42574); test: inhibition of recombinant caspase-3 activity – biochemical, luminescence, set 2, selectivity assay for SENP protease inhibitor project, SAR follow-up (AID 588599); format: functional
T4 sequence (P42574 whole entry): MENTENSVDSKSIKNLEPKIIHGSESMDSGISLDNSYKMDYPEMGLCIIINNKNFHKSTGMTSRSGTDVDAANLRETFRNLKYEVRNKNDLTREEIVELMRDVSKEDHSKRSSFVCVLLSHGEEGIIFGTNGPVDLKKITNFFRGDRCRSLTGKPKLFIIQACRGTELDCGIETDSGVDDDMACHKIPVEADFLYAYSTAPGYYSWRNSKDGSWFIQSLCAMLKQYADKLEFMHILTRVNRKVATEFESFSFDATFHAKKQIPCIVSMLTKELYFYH

[13] = target: T5, Sentrin-specific protease 6 (Homo sapiens, UniProt Q9GZR1); test: inhibition of human SENP6 catalytic domain – biochemical, luminescence, set 2, SAR follow-up (AID 588598); format: functional
T5 sequence (Q9GZR1 whole entry): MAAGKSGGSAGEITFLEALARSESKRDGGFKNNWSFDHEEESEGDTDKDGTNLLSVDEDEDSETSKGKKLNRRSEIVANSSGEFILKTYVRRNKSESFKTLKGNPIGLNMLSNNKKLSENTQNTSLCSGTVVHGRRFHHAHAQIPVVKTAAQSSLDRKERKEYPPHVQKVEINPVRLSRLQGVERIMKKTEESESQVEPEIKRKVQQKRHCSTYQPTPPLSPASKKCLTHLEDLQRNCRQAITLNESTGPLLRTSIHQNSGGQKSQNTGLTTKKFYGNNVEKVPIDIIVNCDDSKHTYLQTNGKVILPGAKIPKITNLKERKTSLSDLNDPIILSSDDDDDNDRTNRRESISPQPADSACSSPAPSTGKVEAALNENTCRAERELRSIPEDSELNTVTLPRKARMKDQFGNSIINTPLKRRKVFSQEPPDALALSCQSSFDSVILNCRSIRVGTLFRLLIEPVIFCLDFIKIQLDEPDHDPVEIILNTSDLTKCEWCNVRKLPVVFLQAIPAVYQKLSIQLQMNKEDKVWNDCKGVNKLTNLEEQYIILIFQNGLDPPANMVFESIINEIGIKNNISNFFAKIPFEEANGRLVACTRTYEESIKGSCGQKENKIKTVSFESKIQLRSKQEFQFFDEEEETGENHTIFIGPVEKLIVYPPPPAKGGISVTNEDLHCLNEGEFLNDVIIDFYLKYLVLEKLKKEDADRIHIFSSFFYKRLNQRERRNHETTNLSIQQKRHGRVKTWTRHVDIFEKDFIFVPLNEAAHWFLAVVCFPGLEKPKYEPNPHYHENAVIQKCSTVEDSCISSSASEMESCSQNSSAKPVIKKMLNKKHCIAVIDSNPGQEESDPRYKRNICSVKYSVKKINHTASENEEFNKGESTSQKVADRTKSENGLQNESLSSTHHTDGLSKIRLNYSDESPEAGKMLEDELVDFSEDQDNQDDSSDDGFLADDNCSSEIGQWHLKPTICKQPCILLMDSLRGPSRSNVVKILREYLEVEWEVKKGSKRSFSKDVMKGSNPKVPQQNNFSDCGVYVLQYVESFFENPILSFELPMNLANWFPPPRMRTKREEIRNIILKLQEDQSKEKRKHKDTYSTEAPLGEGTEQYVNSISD

CAAX prenyl protease 2, sequence (Q9Y256 whole entry): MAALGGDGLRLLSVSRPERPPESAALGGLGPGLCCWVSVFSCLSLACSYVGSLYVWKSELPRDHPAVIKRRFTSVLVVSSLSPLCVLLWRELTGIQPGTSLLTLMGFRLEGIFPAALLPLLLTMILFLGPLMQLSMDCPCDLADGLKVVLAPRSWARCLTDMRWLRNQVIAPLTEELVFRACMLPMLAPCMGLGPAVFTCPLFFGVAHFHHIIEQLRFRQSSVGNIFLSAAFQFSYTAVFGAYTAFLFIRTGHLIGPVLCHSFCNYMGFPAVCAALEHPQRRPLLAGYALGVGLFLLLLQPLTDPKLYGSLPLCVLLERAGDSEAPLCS
Mu-type opioid receptor, sequence (P35372 whole entry): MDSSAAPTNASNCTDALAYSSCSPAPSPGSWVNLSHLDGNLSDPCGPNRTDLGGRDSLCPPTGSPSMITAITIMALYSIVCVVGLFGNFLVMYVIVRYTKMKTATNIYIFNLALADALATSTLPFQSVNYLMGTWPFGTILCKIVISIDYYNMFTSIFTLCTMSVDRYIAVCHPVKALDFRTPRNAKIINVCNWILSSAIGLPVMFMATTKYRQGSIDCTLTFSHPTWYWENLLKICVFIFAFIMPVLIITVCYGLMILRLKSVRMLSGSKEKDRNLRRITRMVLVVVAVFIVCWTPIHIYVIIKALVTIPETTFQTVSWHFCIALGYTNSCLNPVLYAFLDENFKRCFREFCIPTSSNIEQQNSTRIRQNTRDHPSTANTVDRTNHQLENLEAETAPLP
Delta-type opioid receptor, sequence (P41143 whole entry): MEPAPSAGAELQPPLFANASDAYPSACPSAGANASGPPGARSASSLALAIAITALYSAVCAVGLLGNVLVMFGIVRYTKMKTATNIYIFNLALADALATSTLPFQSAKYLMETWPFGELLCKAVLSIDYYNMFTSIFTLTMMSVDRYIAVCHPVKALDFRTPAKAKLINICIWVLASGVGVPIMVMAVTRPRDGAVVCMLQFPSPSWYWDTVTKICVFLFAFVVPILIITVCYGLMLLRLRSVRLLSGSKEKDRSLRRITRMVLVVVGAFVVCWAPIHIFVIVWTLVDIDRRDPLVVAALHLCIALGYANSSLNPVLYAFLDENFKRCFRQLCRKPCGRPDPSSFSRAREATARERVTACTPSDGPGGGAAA
5-hydroxytryptamine receptor 5A, sequence (P47898 whole entry): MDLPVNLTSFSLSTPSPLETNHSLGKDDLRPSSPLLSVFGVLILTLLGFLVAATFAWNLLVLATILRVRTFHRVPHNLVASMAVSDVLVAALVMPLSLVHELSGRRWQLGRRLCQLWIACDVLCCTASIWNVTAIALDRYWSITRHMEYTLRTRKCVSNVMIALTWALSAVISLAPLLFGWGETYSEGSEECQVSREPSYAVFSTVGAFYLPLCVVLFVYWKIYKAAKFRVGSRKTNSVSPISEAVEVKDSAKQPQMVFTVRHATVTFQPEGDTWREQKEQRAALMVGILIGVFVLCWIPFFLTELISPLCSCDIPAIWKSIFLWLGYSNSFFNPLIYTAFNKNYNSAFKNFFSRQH
Dual specificity protein kinase CLK1, sequence (P49759 whole entry): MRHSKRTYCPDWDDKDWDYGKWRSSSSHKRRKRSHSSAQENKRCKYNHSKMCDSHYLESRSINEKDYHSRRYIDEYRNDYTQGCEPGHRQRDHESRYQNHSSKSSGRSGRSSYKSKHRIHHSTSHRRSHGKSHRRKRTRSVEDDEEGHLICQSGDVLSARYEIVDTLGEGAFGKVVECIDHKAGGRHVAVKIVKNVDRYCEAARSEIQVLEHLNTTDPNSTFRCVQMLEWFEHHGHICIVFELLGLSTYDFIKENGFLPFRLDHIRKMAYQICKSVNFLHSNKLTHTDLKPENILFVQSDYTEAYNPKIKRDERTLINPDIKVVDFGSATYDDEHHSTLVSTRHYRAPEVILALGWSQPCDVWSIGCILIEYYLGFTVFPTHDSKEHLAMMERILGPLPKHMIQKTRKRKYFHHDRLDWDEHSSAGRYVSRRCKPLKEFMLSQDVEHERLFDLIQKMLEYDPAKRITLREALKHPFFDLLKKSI
Nonstructural protein 1, sequence (Q194T2 whole entry): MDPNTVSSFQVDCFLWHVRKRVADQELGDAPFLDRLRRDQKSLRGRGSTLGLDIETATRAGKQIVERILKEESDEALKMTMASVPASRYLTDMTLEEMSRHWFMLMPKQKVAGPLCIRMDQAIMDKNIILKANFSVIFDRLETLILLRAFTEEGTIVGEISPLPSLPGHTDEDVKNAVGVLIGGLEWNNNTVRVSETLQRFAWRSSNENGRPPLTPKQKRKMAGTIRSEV
Trypsin, sequence (P00761 whole entry): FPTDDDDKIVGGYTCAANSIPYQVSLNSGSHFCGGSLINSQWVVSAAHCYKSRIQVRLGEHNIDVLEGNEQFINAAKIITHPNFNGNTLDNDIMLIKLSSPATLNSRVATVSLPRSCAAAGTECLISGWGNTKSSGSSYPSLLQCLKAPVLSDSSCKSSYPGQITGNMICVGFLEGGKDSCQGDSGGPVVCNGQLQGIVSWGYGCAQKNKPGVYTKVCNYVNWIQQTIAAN

Cc1cc(N2CCN(C)CC2)ccc1NC(=O)c1ccc(-c2ccc(Cl)cc2)o1
EC50 [1]: > 92.4 µM (inactive)
EC50 [2]: 9.64 µM (active)
EC50 [3]: > 92.4 µM (inactive)
EC50 (Mu-type opioid receptor): > 92.4 µM (inactive)
EC50 [4]: 254 nM (active)
EC50 [5]: 0.749 µM (active)
IC50 (Nonstructural protein 1): 44 µM (active)

O=C(CSC1=NCCS1)c1ccc(Cl)cc1
AC50 (Escherichia coli [6]): 28 µM (active)

Cc1ccccc1OCC(=O)Nc1nnc(-c2ccncc2)s1
AC50 (Escherichia coli [7]): 39.7 µM (active)

O=C(NCc1ccc2c(c1)OCO2)c1cc(O)nc2ccccc12
AC50 (A-375 [8]): > 35 µM (active)
AC50 (A-375 [9]): > 35 µM (active)

Cc1cc(=O)oc2c3c(cc(OCC(=O)N4CCC(C(=O)O)CC4)c12)OC(C)(C)CC3
AC50 (Trypsin): 1.51 µM (active)
AC50 (CAAX prenyl protease 2): 1.28 µM (active)

CC(Nc1nc(-c2cccnc2)nc2ccccc12)c1ccc(F)cc1 (stereo not drawn)
EC50 [2]: 14.4 µM (active)
EC50 [4]: 658 nM (active)
AC50 [10]: 9.34 µM (active)

Cc1ccc(CNc2ncnc3ccc(-c4ccc5c(c4)OCO5)cc23)o1
AC50 [10]: 0.0226 µM (active)

O=C(NCc1ccco1)c1ccc(COCC(F)(F)F)cc1
AC50 (A-375 [8]): > 35 µM (active)
AC50 (A-375 [9]): > 35 µM (active)

CCOC(=O)c1c(-c2ccc(OC)cc2)oc2ccc(OC(=O)N(C)C)cc12
AC50 (CAAX prenyl protease 2): 6.46 µM (active)

C=CCn1c(SCC(=O)NCc2ccc3c(c2)OCO3)nnc1-c1cccnc1
AC50 (Escherichia coli [7]): 50.2 µM (active)

CN(C)CCCN(C(=O)c1ccc(S(=O)(=O)N2CCCCCC2)cc1)c1nc2c(F)cc(F)cc2s1
EC50 [1]: > 92.4 µM (inactive)
EC50 [3]: > 92.4 µM (inactive)
EC50 (Mu-type opioid receptor): 33.4 µM (inactive)
EC50 [5]: 5.31 µM (active)

CCOc1cccc2sc(NC(=O)c3ccc(C#N)cc3)nc12
IC50 [11]: > 99 µM (inactive)
IC50 [12]: > 99 µM (inactive)
IC50 (Caspase-3): > 99 µM (inactive)
IC50 [13]: > 99 µM (inactive)

CN(C(=O)C(=O)c1c[nH]c2ccccc12)C1CCCCC1
IC50 [11]: > 99 µM (inactive)
IC50 [12]: > 99 µM (inactive)
IC50 (Caspase-3): > 99 µM (inactive)
IC50 [13]: > 99 µM (inactive)
